In this assay the test system is Plasmodium berghei. The assay can be described thus: Luciferase/luciferin-expressing antifolate-resistant parasites were used to infect a culture of HepG2 cells that were pre-incubated with compounds. Infected hepatocytes emit light due to the luciferase reaction. Assay results are presented as the percent inhibition of light emission compared to control. […]. Type of assay: functional. The note with it: sporozoite; for IC90: read-out: LUCIFERASE INFECTION ASSAY - IC90.

Where [1] appears, read: read-out: LUCIFERASE INFECTION ASSAY - IC50.

`O=C(Cn1nnc(-c2ccccc2)n1)N/N=C/c1c(O)ccc2ccccc12`: the IC90 (in general, the concentration needed for an effect of 90%) is above 10 µM. Moreover, where the note is “HEPG2TOX_HILL_SLOPE 16.4, HEPG2TOX_R_SQUARED 0.547, PBLUC_HILL_SLOPE 10.9, PBLUC_R_SQUARED 0.367, read-out: LUCIFERASE INFECTION ASSAY - IC50”, the IC50 (as a rule, the concentration that gives 50% inhibition) was 8.32 µM.

Regarding `CCOC(=O)c1nc(-c2ccc([N+](=O)[O-])o2)no1`, the IC90 is above 13 µM. The IC50 under setting [1] is above 13 µM.

Consider `COC(=O)C1=C(C)NC(C)=C(C(=O)OC)C1c1cc(NC(=O)c2cccc(OC(F)F)c2)ccc1OC(F)F`, for which the IC90 came out at 8.9 µM. Also, the IC50 (PBLUC_HILL_SLOPE 3.17, PBLUC_R_SQUARED 0.755, read-out: LUCIFERASE INFECTION ASSAY - IC50) stood at 4.45 µM.

For `CCc1nc2oc3ccccc3c(=O)c2c(=O)n1CCc1ccccc1`, the IC90 was above 9.53 µM. Also, the IC50 (HEPG2TOX_HILL_SLOPE 2.79, HEPG2TOX_R_SQUARED 0.325, PBLUC_HILL_SLOPE 2.85, PBLUC_R_SQUARED 0.319, read-out: LUCIFERASE INFECTION ASSAY - IC50) was determined as 4.63 µM.

Turning to `O=C(O)C(CCO)Sc1nnc(Nc2ccc(Oc3ccccc3)cc2)s1` (stereo not drawn), the IC90 is above 10 µM. Where the note is “HEPG2TOX_HILL_SLOPE 1.82, HEPG2TOX_R_SQUARED 0.816, PBLUC_HILL_SLOPE 10.1, PBLUC_R_SQUARED 0.331, read-out: LUCIFERASE INFECTION ASSAY - IC50”, the IC50 was determined as 9.1 µM.

As to `O=C(Nc1ccc(CN2CCCC2)cc1)c1ccc(-n2cnc3ccccc32)cc1`, the IC90 is above 10 µM. Further, the IC50 (HEPG2TOX_HILL_SLOPE 1.93, HEPG2TOX_R_SQUARED 0.859, PBLUC_HILL_SLOPE 3.59, PBLUC_R_SQUARED 0.621, read-out: LUCIFERASE INFECTION ASSAY - IC50) was determined as 5.74 µM.

For `CN(C)c1ccc(C(=O)Nc2cnc3ccccc3c2)cc1`, the IC90 is above 10 µM. Moreover, where the note is “FFLUC_HILL_SLOPE 4.08, FFLUC_R_SQUARED 0.429, HEPG2TOX_HILL_SLOPE 2.09, HEPG2TOX_R_SQUARED 0.742, PBLUC_HILL_SLOPE 0.628, PBLUC_R_SQUARED 0.448, read-out: LUCIFERASE INFECTION ASSAY - IC50”, the IC50 turned out to be 0.554 µM.

Take `Cc1ccc(S(=O)(=O)Nc2ccc(Nc3nccn4c(-c5ccc(OC(F)(F)F)cc5)cnc34)cc2)cc1`: the 90% effect concentration (IC90) was determined as 3.49 µM. For the same compound, the IC50 (PBLUC_HILL_SLOPE 1.58, PBLUC_R_SQUARED 0.687, read-out: LUCIFERASE INFECTION ASSAY - IC50) was 0.867 µM.

For the compound `OC(c1ccc(Cl)cc1)c1nnc(Nc2ccc(Oc3ccccc3)cc2)s1` (stereo not drawn), the IC90 is above 10 µM. Also, the IC50 (PBLUC_HILL_SLOPE 7.15, PBLUC_R_SQUARED 0.699, read-out: LUCIFERASE INFECTION ASSAY - IC50) worked out at 8.48 µM.

`CC1C(=O)N(Cc2ncc(-c3ccccc3)o2)C(=O)N1c1ccc(F)cc1` (stereo not drawn): the IC90 was above 10 µM. For the same compound, under setting [1], the IC50 was found to be 9.72 µM.

As for `COc1ccc(/C=C(\C#N)c2n[nH]c(=O)c3ccccc23)cc1`, the 90% effect concentration (IC90) was above 10 µM. Also, the IC50 under setting [1] was found to be 4.17 µM.

As for `Cc1csc(NC(=O)c2ccc3[nH]c4c(c3c2)CC(C)CC4)n1` (stereo not drawn), the IC90 was above 10 µM. The 50% inhibitory concentration (IC50) (PBLUC_HILL_SLOPE 21.4, PBLUC_R_SQUARED 0.315, read-out: LUCIFERASE INFECTION ASSAY - IC50) worked out at 9.45 µM.

For the compound `CC(C)c1ccc(C2C3CCc4ccccc4C3=NN2CCO)cc1` (stereo not drawn), the IC90 turned out to be 1.32 µM. Moreover, where the note is “PBLUC_HILL_SLOPE 1.49, PBLUC_R_SQUARED 0.685, read-out: LUCIFERASE INFECTION ASSAY - IC50”, the IC50 was 0.301 µM.

On to `O=C(CN1CC=C(c2ccccc2)CC1)Nc1ccnn1C1CCCC1`, for which the IC90 was above 10 µM. Moreover, under “HEPG2TOX_HILL_SLOPE 1.62, HEPG2TOX_R_SQUARED 0.847, PBLUC_HILL_SLOPE 1.87, PBLUC_R_SQUARED 0.673, read-out: LUCIFERASE INFECTION ASSAY - IC50”, the IC50 came to 5.98 µM.

As to `Fc1cccc(-c2nccc3n[nH]c(-c4cccc(OC(F)(F)F)c4)c23)c1`, the IC90 was above 10 µM. Also, under “PBLUC_HILL_SLOPE 1.45, PBLUC_R_SQUARED 0.246, read-out: LUCIFERASE INFECTION ASSAY - IC50”, the IC50 amounted to 5.34 µM.

Turning to `COc1cc(-c2ccnc3n[nH]c(-c4ccccc4)c23)cc(OC)c1OC`, the IC90 is above 10 µM. The half-inhibitory concentration (IC50) under setting [1] came out at 3.13 µM.

`CS(=O)(=O)Nc1cccc(-c2cn3c(-c4cccc(O)c4)cnc3cn2)c1`: the IC90 was found to be 8.16 µM. In addition, for the setting “HEPG2TOX_HILL_SLOPE 7.05, HEPG2TOX_R_SQUARED 0.671, PBLUC_HILL_SLOPE 23.9, PBLUC_R_SQUARED 0.257, read-out: LUCIFERASE INFECTION ASSAY - IC50”, the IC50 was 7.45 µM.

As for `O=C(Nc1cnc2ccccc2c1)c1cccc(NC(=O)c2cccs2)c1`, the IC90 was above 10 µM. In addition, the IC50 (PBLUC_HILL_SLOPE 0.461, PBLUC_R_SQUARED 0.664, read-out: LUCIFERASE INFECTION ASSAY - IC50) stood at 0.217 µM.

Consider `Cc1nc(NCCCCCc2n[nH]c(N)c2C#N)c2c(-c3ccccc3)csc2n1`, for which the IC90 worked out at 7.48 µM. Also, where the note is “HEPG2TOX_HILL_SLOPE 1.31, HEPG2TOX_R_SQUARED 0.867, PBLUC_HILL_SLOPE 3.24, PBLUC_R_SQUARED 0.486, read-out: LUCIFERASE INFECTION ASSAY - IC50”, the IC50 came out at 3.79 µM.

`CC1C(=O)Nc2ccc(-c3csc(-c4ccc(NC(=O)c5ccco5)cc4)n3)cc21` (stereo not drawn): the IC90 was above 10 µM. Further, the IC50 under setting [1] is above 10 µM.

With `Cc1cccc(-c2noc(CNC(=O)Cc3ccc(-c4ccccc4)cc3)n2)c1`, the IC90 came to 3.18 µM. For the same compound, the concentration for half-maximal inhibition (IC50) (FFLUC_HILL_SLOPE 13.2, FFLUC_R_SQUARED 0.46, HEPG2TOX_HILL_SLOPE 2.91, HEPG2TOX_R_SQUARED 0.962, PBLUC_HILL_SLOPE 21.5, PBLUC_R_SQUARED 0.134, read-out: LUCIFERASE INFECTION ASSAY - IC50) came to 2.87 µM.

Turning to `COc1ccc(-c2nc(C=C3C(=O)c4ccccc4C3=O)cs2)cc1`, the IC90 is above 10 µM. The IC50 under setting [1] was above 10 µM.

Regarding `Cc1sc2nc(-c3cccnc3)nc(NCCc3ccc(S(N)(=O)=O)cc3)c2c1C`, the IC90 was above 10 µM. Moreover, the IC50 (PBLUC_HILL_SLOPE 1.71, PBLUC_R_SQUARED 0.31, read-out: LUCIFERASE INFECTION ASSAY - IC50) came out at 7.09 µM.

Turning to `O=C(Nc1ccc(Cl)c(C(F)(F)F)c1)Nc1ccc2nc(-c3ccsc3)nn2c1`, the IC90 is 9.25 µM. Besides, the half-maximal inhibitory concentration (IC50) (HEPG2TOX_HILL_SLOPE 8.17, HEPG2TOX_R_SQUARED 0.277, PBLUC_HILL_SLOPE 11.1, PBLUC_R_SQUARED 0.655, read-out: LUCIFERASE INFECTION ASSAY - IC50) is 7.59 µM.

Consider `Clc1cccc(-c2[nH]nc3nccc(-c4ccc(N5CCNCC5)cc4)c23)c1`, for which the IC90 came out at 4.08 µM. For the same compound, the IC50 (FFLUC_HILL_SLOPE 19.9, FFLUC_R_SQUARED 0.198, HEPG2TOX_HILL_SLOPE 3.67, HEPG2TOX_R_SQUARED 0.922, PBLUC_HILL_SLOPE 10.3, PBLUC_R_SQUARED 0.464, read-out: LUCIFERASE INFECTION ASSAY - IC50) turned out to be 3.3 µM.

Consider `O=C(NCc1ccc(-c2cccs2)s1)c1ccc([N+](=O)[O-])s1`, for which the concentration for an effect of 90% (IC90) is above 9.42 µM. Also, the IC50 (PBLUC_HILL_SLOPE 15, PBLUC_R_SQUARED 0.438, read-out: LUCIFERASE INFECTION ASSAY - IC50) came to 8.73 µM.

In the case of `CCOC(=O)Cc1nn(Cc2nc(-c3ccc4c(c3)C(C)(C)CCC4(C)C)cs2)c(=O)c2ccccc12`, the 90% effect concentration (IC90) was determined as 2.02 µM. Also, the IC50 (FFLUC_HILL_SLOPE 16.2, FFLUC_R_SQUARED 0.167, PBLUC_HILL_SLOPE 1.27, PBLUC_R_SQUARED 0.666, read-out: LUCIFERASE INFECTION ASSAY - IC50) was determined as 0.357 µM.

Regarding `CCN1CCc2nc(NC(=O)c3nc(-c4cccs4)n(-c4ccc(F)cc4)n3)sc2C1`, the IC90 was above 10 µM. The IC50 under setting [1] was above 10 µM.

Turning to `COc1ccc(-c2csc3ncnc(NCCCCCc4n[nH]c(N)c4C#N)c23)cc1`, the IC90 came to 3.53 µM. Where the note is “HEPG2TOX_HILL_SLOPE 1.47, HEPG2TOX_R_SQUARED 0.942, PBLUC_HILL_SLOPE 36.2, PBLUC_R_SQUARED 0.623, read-out: LUCIFERASE INFECTION ASSAY - IC50”, the IC50 came to 3.33 µM.

With `O=C(COC(=O)/C=C/c1cn(-c2ccccc2)nc1-c1ccc(Cl)cc1)NC(=O)NC1CCCC1`, the IC90 is above 10 µM. Moreover, the IC50 under setting [1] turned out to be 9.03 µM.

`CC(C)(C)NC(=S)N/N=C/c1ncc(C(F)(F)F)cc1Sc1ccc(Cl)cc1`: the IC90 came to 4.33 µM. For the same compound, the IC50 (FFLUC_HILL_SLOPE 15.8, FFLUC_R_SQUARED 0.683, HEPG2TOX_HILL_SLOPE 2.2, HEPG2TOX_R_SQUARED 0.982, PBLUC_HILL_SLOPE 3.41, PBLUC_R_SQUARED 0.827, read-out: LUCIFERASE INFECTION ASSAY - IC50) amounted to 2.27 µM.

With `O=S(=O)(Nc1cc(F)c(Br)cc1F)c1cc(C(F)(F)F)cc(C(F)(F)F)c1`, the IC90 was above 6.82 µM. In addition, the half-inhibitory concentration (IC50) (HEPG2TOX_HILL_SLOPE 2.19, HEPG2TOX_R_SQUARED 0.933, PBLUC_HILL_SLOPE 2.47, PBLUC_R_SQUARED 0.245, read-out: LUCIFERASE INFECTION ASSAY - IC50) came to 2.98 µM.

`CC(NC(=S)N/N=C/c1cc(Cl)cc(Cl)c1O)c1ccccc1` (stereo not drawn): the concentration for an effect of 90% (IC90) was found to be 8.46 µM. The IC50 (PBLUC_HILL_SLOPE 1.69, PBLUC_R_SQUARED 0.56, read-out: LUCIFERASE INFECTION ASSAY - IC50) came to 2.31 µM.

For `COc1ccccc1NC(=S)N/N=C(C)/C=C/C1C(C)=CCCC1(C)C` (stereo not drawn), the IC90 is above 10 µM. Besides, the IC50 under setting [1] was above 10 µM.

Values taken from ChEMBL document CHEMBL4483862, “Open-source discovery of chemical leads for next-generation chemoprotective antimalarials” (2018).
